Source: patent US12616672B2, “Methods for assessing risk of cardiovascular disease and methods and compounds for use in treating or preventing cardiovascular disease” (Queen Mary University of London, priority 2017, dated 2026)

System: healthy volunteer peripheral blood neutrophils, monocytes and platelets
Experiment: Healthy volunteer whole blood incubated with RvDn-3 DPA then PAF, flow cytometry of activation markers
Type: cell-based, human
Conditions: 0.1, 1, 10 nM, 15 min then PAF 30 min
Protocol: Blood was collected from healthy volunteers and incubated with RvD2n-3 DPA, RvD5n-3 DPA (0.1 nM, 1 nM or 10 nM) or vehicle (PBS) for 15 min (37° C.) then with PAF (100 ng/ml; 30 min; 37° C.). Cell activation and leukocyte-platelet aggregates were assessed using flow cytometry. (A,B) Representative histograms depicting neutrophil (A) CD11b and (B) CD62P expression. (C,D) Cumulative neutrophil ([…]) CD11b and (D) CD62P expression. (E,F) Monocyte (E) CD11b and (F) CD62P expression. Results are mean of n=5 per time point and expressed as percentage change from PAF incubated cells. *p<0.05 compared to PAF using one-sample t test, followed by Sidak correction of p values.
Blood was collected from healthy volunteers and incubated with RvD2n-3 DPA, RvD5n-3 DPA (0.1 nM, 1 nM or 10 nM) or vehicle (PBS) for 15 min (37° C.) then with PAF (100 ng/ml; 30 min; 37° C.). Cell activation and leukocyte-platelet aggregates were assessed using flow cytometry. (A,B) Images depicting platelet monocyte (A) and (B) platelet-neutrophil aggregates. Results are representative of n=3 distinct experiments. (C,D) Cumulative neutrophil (C) CD11b and (D) CD62P expression. (E,F) Monocyte (E) CD11b and (F) CD62P expression. Results are mean of n=5 per condition and expressed as percentage change from PAF incubated cells. *p<0.05 compared to PAF using Wilcoxon Signed Rank Test. (G) Platelet rich plasma was incubated with vehicle (PBS) or RvD5n-3 DPA 0.1-10 nM (15 min; 37° C.) and PAF (100 nM; 30 min; 37° C.). Adhesion molecule expression evaluated using flow cytometry. Results are mean±s.e.m. n=5 healthy volunteers. * p, 0.05 compared to Vehicle group using Friedman's test followed by Dunn's multiple comparisons test.
After stimulation, samples were washed twice with PBS for 12 min at 800×g. Samples were stained for flow cytometry as described below.
Whole blood was incubated with lineage-specific markers for 45 min (4° C., in DPBS containing 0.02% BSA). The following anti-human antibodies were used: VioBlue-anti-CD41, PE-Cy5-anti-CD62P, Brilliant Violet 711-anti-CD11b, APC-Cy7-anti-CD16, Alexa Fluor 647-anti-CD14. After staining, red blood cells were lysed using Whole Blood Lysing Reagent Kit, according to the manufacturer's instructions. Data was collected using a flow cytometer and analysis was conducted using appropriate software.

CC/C=C\C[C@H](O)/C=C/C=C\C/C=C\C=C\[C@@H](O)CCCCCC(=O)O [RvD5n-3 DPA, 7,17-trihydroxy-8E,10,13,15E,19Z-docosapentaenoic acid]
dose-dependent decreases: leukocyte-platelet aggregates | monocyte expression of CD11b (vs PAF alone) | neutrophil CD11b expression (vs PAF alone)
